Results reported in EP0481802A1, “Hydroxylated inhibitors of HIV reverse transcriptase” (MERCK & CO. INC., priority 1990, dated 1992).

Biological target: T1, recombinant HIV reverse transcriptase (HIV RTR) (Human immunodeficiency virus type 1 group M subtype B, UniProt P04585)
T1 construct: recombinant HIV reverse transcriptase (HIV RTR)
Experiment: Reverse Transcriptase Assay
Type: biochemical
Settings: incorporation of [³H] dGMP into acid-precipitable cDNA, dGTP and poly r(C)·oligo d(G)12-18 at Km, 37°C for 45 minutes; read-out: IC₅₀
Experimental: The assay measures the incorporation of tritiated deoxyguanosine monophosphate by recombinant HIV reverse transcriptase (HIV RTR) (or other RT) into acid-precipitable cDNA at the Km values of dGTP and poly r(C)·oligo d(G)₁₂₋₁₈.
Thirty uL of a reaction mixture containing equal volumes of: 500 mM Tris·HCl (pH 8.2), 300 mM MgCl₂, 1200 mM KCl, 10 mM DTT, 400 µg/mL poly r(c)·oligo d(G) [prepared by dissolving 1.5 mg (25 U) poly r(C)·oligo d(G) in 1.5 ml sterile distilled H₂O and diluting to 400 µg/ml], 0.1 µCi/µl [³H] dGTP, 160 µM dGTP, was added to 10 µl sterile distilled H₂O, 2.5 µl of potential inhibitor and 10 µL of 5 nM purified HIV RTR in tubes. The mixture was incubated at 37°C for 45 minutes.
After incubation is complete, the tubes were cooled in ice for 5 minutes. Ice-cold 13% TCA containing 10 mM NaPPi (200 µl) are added and the mixture incubated on ice for 30 minutes. The precipitated cDNA is removed by filtration using presoaked glass filters [TCA, NaPPi]. The precipitate is then washed with 1N HCl, 10 mM NaPPi.
The filter discs are then counted in a scintillation counter.
Under these conditions [dGTP] and poly r(C)·oligo d(G)₁₂₋₁₈ each are approximately equal to the appropriate Km value. […] Calculated IC₅₀ values for the lead compounds of this invention were approximately 94nM and (more than or equal to) 300 µM for L-697,914 and L-697,913, respectively. […]

Compound	IC50 [nM]
Cc1[nH]c(=O)c(NCc2nc3ccccc3o2)cc1C(C)O [L-697,913, 3-[(benzoxazol-2-yl)methylamino]-5-(1-hydroxyethyl)-6-methylpyridin-2(1H)-one]	≥ 300000
CCc1cc(NCc2nc3ccccc3o2)c(=O)[nH]c1CO [L-697,914, 3-[(benzoxazol-2-yl)methylamino]-5-ethyl-6-hydroxymethylpyridin-2(1H)-one]	~94
